In a melting point compilation (Tetko et al.):

melting point	SMILES
90 to 94 °C	CCOC(=O)c1c(N)sc2c1CCC2
112 to 114 °C	O=C(O)CCCCCCCCCCCC(=O)O
31 °C	c1coc(CSCc2ccco2)c1
75 °C	CC(=O)CCc1oc2ccc(Cl)cc2c1-c1ccc(C)o1
-55.4 °C	CCCC(CC)c1ccccc1 (stereo not given)
218 to 222 °C	O=C(O)C=Cc1cc([N+](=O)[O-])ccc1Cl
10 °C	CCCCCCCC(=O)OCC(COC(=O)CCCCCCC)OC(=O)CCCCCCC
85 °C	OCC(Br)C(Br)CO (stereo not given)
151 to 154 °C	O=C(O)CS(=O)(=O)C=Cc1ccccc1
248 to 255 °C	CC(C)C(C)(N)P(=O)(O)O (stereo not given)
30 to 36 °C	Cc1ccccc1C(=O)Cc1ccccc1C(=O)OC(C)(C)C
188 °C	CC1CC2C3CC(F)C4=CC(=O)C=CC4(C)C3C(O)CC2(C)C1C(=O)CO (stereo not given)
86.5 to 87.5 °C	COC(=O)CCC(C)C1CCC2C3C=CC4CC(OC(C)=O)CCC4(C)C3CC(OC(C)=O)C12C (stereo not given)
185 °C	O=C(O)c1ccc(F)cc1Cl
181 °C	CC(CC(=O)O)C1CCC2C3C=CC4CC(O)CCC4(C)C3CC(O)C12C (stereo not given)
-61.1 °C	CCCC/C=C/CCCCC
101 °C	NS(=O)(=O)c1ccc(SCCCCO)cc1
245 °C	Oc1cccnc1O
118 °C	Cc1ccc(S(=O)(=O)CC(=O)O)cc1
90 °C	CC1(C)OC(=O)CC1CC(=O)O (stereo not given)
117 °C	CCCCc1ccc(NC(=O)c2ccc(CC)cc2)cc1
32 °C	CCCCCCCCCCCCCCCCCBr

melting point	SMILES
216 °C	CCC1(O)C(=O)OCc2c1cc1n(c2=O)Cc2cc3c(CN(C)C)c(O)ccc3nc2-1 (stereo not given)
158 to 161 °C	NCCCCC(=O)O
186 °C	NNC(=O)c1cc2ccccc2s1
78 to 81 °C	O=C(O)C1CCN(C(=O)OCc2ccccc2)CC1
125 to 126 °C	CCOC(=O)c1[nH]c(C)cc1C
266 °C	O=[N+]([O-])c1ccc2c(c1)=NC(c1cccc(C3N=c4cc([N+](=O)[O-])ccc4=C3O)c1)C=2O (stereo not given)
191 to 194 °C	NCCSS(=O)(=O)O
63 °C	C=CCOC(=O)N1CCN(C(=O)OCC2c3ccccc3-c3ccccc32)C(C(=O)O)C1 (stereo not given)
102 °C	CC(CCC(N)=O)n1nc2ccccc2n1 (stereo not given)
120 °C	O=CN(O)CC(=O)O
176 to 178 °C	O=C(NC1(Cc2ccccc2)COCOC1=O)c1ccccc1 (racemic)
63 to 65 °C	O=C(O)C1CCC(C(F)(F)F)CC1 (stereo not given)
72.5 °C	N#CCC(=O)N1CCCC1
106 °C	CCOC(=O)C1=C(CBr)NC(C)=C(C(=O)OC)C1c1cccc([N+](=O)[O-])c1 (stereo not given)
79.3 °C	COC(=O)CC(O)(CC(=O)OC)C(=O)OC
84.5 °C	CN(C)C(=O)CCC(=O)O
-105 °C	CC(C)CCCC(C)O (stereo not given)
61 °C	CC(C)(C)OC(=O)N1CCC[C@H]1CO
51 to 53 °C	OCC1OC1c1ccccc1 (stereo not given)
-100 °C	CCCC(CC(OCC)OCC)OCC (stereo not given)
11 °C	NCCCO
104 to 106 °C	Cc1ccccc1CCC(=O)O

More lines, now with the values behind:

SMILES	melting point
Cc1cc([N+]([O-])=Nc2ccccc2)ccc1N=Nc1ccccc1	103 °C
O=P(c1ccccc1)(c1ccccc1)C1C=COC2=C1CCCC2 (stereo not given)	176 to 177 °C
COC(=O)c1scc(S(=O)(=O)Cc2ccco2)c1N	152 to 154 °C
C[Si]1(C)O[Si](C)(C)O[Si](C)(C)O[Si](C)(C)O[Si](C)(C)O[Si](C)(C)O1	-3 °C
CSCS(=O)(=O)c1ccc(C)cc1	79 °C
C=C1C(=O)C23C4CC5C(C)(C)CCC(=O)C5(C(=O)O4)C2C(=O)CC1C3O (stereo not given)	250 °C
O=C1OC(c2ccccc2)=NC1=Cc1ccco1	158 to 159 °C
[O-][N+]1=C(c2ccccn2)/C(=N\O)c2ccccc21	215 to 217 °C
N#Cc1c(N2CCCC2)nc(N)c2c(-c3ccccc3)cc(-c3ccccc3)nc12	236 °C
O=c1c2ccccc2cc2c3ccccc3ccn12	147 °C
N#Cc1cccc(S(=O)(=O)Cl)c1	50 °C
CC(=O)Nc1cc(N=Nc2ccccc2)c(C)c(NC(C)=O)c1	255 °C
CC12CCC(CC/C1=N\O)C2(C)C (stereo not given)	164 °C
COc1ccc(C2Cc3ccccc3C(C)(O)O2)cc1 (stereo not given)	102 °C
Cc1ccc(F)cc1	-56 °C
O=c1cc(Cl)nc[nH]1	194 to 195 °C
FC(F)(F)C(F)(F)Cl	-99.4 °C
CC(=O)c1sc2nc(-c3cccs3)cc(C(F)(F)F)c2c1N	171 to 172 °C
Cc1ccc([N+](=O)[O-])cc1N=C=S	60 to 62 °C
O=C1CCc2ccccc2CC1	30 °C
Cn1c(=O)n(-c2ccccc2)c(=O)c2c3c(sc21)CCCC3	249 to 251 °C
O=C1/C(=C\c2ccc(Cl)cc2)SC(=S)N1CN1CCOCC1	149 °C

SMILES	melting point
O=C(CCCN1CC=C(n2c(=O)[nH]c3ccccc32)CC1)c1ccc(F)cc1	146 °C
C#CC1(O)CCC2C3CCC4CCCCC4(C)C3CCC21C (stereo not given)	155 °C
NC(=S)c1ccc(F)c(Cl)c1	129 to 131 °C
Cn1nc(-c2ccccc2)cc1CN	48 to 49 °C
N#Cc1c(-c2ccccc2)nn(-c2ccccc2)c1N	161 °C
CC(NNC(=O)c1ccccc1)c1ccccc1 (stereo not given)	93.5 °C
C=CCc1ccc(OC)c(OC)c1	70 °C
CC(C)(C)C1CCCC1	-96 °C
Nc1cccc2c1CCCC2	38 °C
Nc1nc(-c2ccc(O)cc2)cs1	206 to 208 °C
CC(C)(C)c1ccc(C(N)=S)cc1	145 to 148 °C
CSc1nc(=O)n(Cc2ccccc2)c2c1CCC2	94 to 96 °C
Nc1ccc(S(=O)(=O)N2CCOCC2)cc1	216 to 218 °C
Brc1ccc(Oc2ccc(Br)c(Br)c2)c(Br)c1	< 20 °C
COC(=O)c1c(Cl)nn(C)c1S(=O)(=O)NC(=O)Nc1nc(OC)cc(OC)n1	176 °C
C#CC1(OC(C)=O)CCC2C3CCC4=CC(=O)CCC4C3CCC21C (stereo not given)	162 °C
COc1cccc2c1C(=O)c1c(O)c3c(c(O)c1C2=O)CC(O)(C(C)=O)CC3OC1CC(N)C(O)C(C)O1 (stereo not given)	208 °C
O=Cc1c(Cl)[nH]n(-c2ccccc2)c1=O	167 °C
Cc1cc(O)c(C(=O)c2ccccc2)cc1Cl	138 to 142 °C
CC(O)C(Cl)(Cl)Cl (stereo not given)	50.5 °C
COC(=O)C=Cc1ccc(C=CC(=O)OC)c(NC(C)=O)c1	168 °C
Clc1ccc(C(Cl)Cl)c(Cl)c1Cl	84 °C

SMILES	melting point
C=C1CCC(O)CC1=CC=C1CCCC2(C)C1CCC2C(C)C=CC(C)C(C)C (stereo not given)	116 °C
Brc1ccc2c(c1)CNCC2	34 °C
CN1CCC(=O)NC1=O	171 °C
O=C(Cl)c1ccc2nccnc2c1	119 °C
CCCCN(CC)c1c([N+](=O)[O-])cc(C(F)(F)F)cc1[N+](=O)[O-]	66 °C
O=C(CCl)c1ccc(O)c(O)c1	174 °C
O=C(Nc1ccc([N+](=O)[O-])cc1Br)C1(F)C(F)(F)C(F)(F)C(F)(F)C(F)(F)C1(F)F	102 °C
CC(=O)Nc1cccc(-n2nnnc2S)c1	185 to 187 °C
Cc1cc(Cl)ncc1N	69 to 73 °C
CBr	-93.7 °C
Cc1cccc(C(=O)N(NC(=O)c2ccccc2)C(C)(C)C)c1	211 °C
CC(=O)n1nc(C(F)(F)F)cc1-c1ccccc1	77 °C
COc1cc([N+](=O)[O-])c(Cl)cc1N	131 to 133 °C
CC1=C(C(=O)Nc2ccccc2)CCCO1	110 °C
COc1ccc(F)cc1C#N	117 °C
Cc1ccc(N2CCNCC2)cc1	29 to 34 °C
CCOC(=O)c1cnc2c(c(C)nn2C)c1Oc1ccc(OC)cc1	92 to 93.5 °C
CC1(C)OC(=O)C2(CC2)C(=O)O1	65 °C
COc1ccc(-c2ccc(C=O)s2)cc1	118 to 119 °C
CC(Cl)CCl (stereo not given)	-100 °C
C[Si](C)(c1ccccc1)[Si](C)(C)c1ccccc1	33 to 38 °C
O=c1occo1	19 to 22 °C

SMILES	melting point
COC(=O)c1cccc(C#N)c1	65 °C
Cc1cc(C(C)(C)C)c(O)c(C)c1CC1=NCCN1	182 °C
Cc1c(C)c(C)c2c(c1C)CC1(OC2=O)C(=O)c2ccccc2C1=O	257 °C
CSc1nc2[nH]c(=S)n(Cc3ccccc3)c(=O)c2n1C	231 to 233 °C
OC12CC3CC(CC(C3)C1)C2	240 °C
N#Cc1c[nH]nc1N	175 °C
IC(I)=C(I)I	187 °C
CC1C(c2ccccc2)=Cc2ccccc21 (stereo not given)	58 °C
CC(=O)Oc1ccc2ccc(OC(C)=O)cc2c1	131 °C
COC(=O)c1cc(C=O)cn1C	100 to 101 °C
Cc1cccc(N(C)C(=S)Oc2ccc3ccccc3c2)c1	111 °C
C=CCOC1=NS(=O)(=O)c2ccccc21	138 °C
c1ccc(-c2nnc(NC3=NCCN3CN3CCCCC3)s2)cc1	133 to 134 °C
Cc1cc([N+](=O)[O-])cnc1N	260 °C
CSc1nn2c(C(F)(F)F)cc(C(F)(F)F)nc2c1C(N)=O	250 °C
c1ccc(-c2c3ccccc3c(-c3ccccc3)c3c(-c4ccccc4)c4ccccc4c(-c4ccccc4)c23)cc1	332 °C
CCCCCCCCCCCCC1CCC1=O (stereo not given)	28 to 31 °C
CC(C)(C)OC(=O)N1CCN(C(=O)OCC2c3ccccc3-c3ccccc32)C(C(=O)O)C1 (stereo not given)	163 to 166 °C
COP(=S)(OC)Oc1c(Cl)cc(C)cc1Cl	79 °C
Cc1cc2c(nn1)CCc1nonc1-2	143 to 145 °C
